Measured values: US9777001B2 (priority 2014, dated 2017)
Counter-ions that a name gives are not always drawn.

These compounds were tested against human Factor XIa (Homo sapiens, UniProt P03951) (assay: biochemical). Conditions: purified human Factor XIa, substrate S-2366, HEPES buffer pH 7.4.
human Factor XIa, sequence (P03951 388-625 limits assumed): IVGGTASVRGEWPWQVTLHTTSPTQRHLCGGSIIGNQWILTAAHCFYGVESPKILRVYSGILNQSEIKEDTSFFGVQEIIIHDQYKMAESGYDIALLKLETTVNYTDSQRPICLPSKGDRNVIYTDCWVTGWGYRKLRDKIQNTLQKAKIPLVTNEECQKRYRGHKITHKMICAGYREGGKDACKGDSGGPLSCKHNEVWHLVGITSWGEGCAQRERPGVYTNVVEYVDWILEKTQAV
human Factor XIa, sequence (P03951 19-387 partner limits assumed): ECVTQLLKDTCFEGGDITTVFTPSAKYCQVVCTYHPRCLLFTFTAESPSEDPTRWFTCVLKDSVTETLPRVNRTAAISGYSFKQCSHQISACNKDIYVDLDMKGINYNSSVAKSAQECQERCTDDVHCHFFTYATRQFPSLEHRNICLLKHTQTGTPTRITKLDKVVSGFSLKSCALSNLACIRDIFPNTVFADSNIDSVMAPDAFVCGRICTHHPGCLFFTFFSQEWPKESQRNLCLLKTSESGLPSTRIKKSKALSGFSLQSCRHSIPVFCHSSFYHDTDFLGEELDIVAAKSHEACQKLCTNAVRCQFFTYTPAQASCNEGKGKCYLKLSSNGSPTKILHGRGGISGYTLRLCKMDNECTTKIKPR

| Ki [nM] | SMILES |
| --- | --- |
| 0.1 | C[C@@H]1CCC[C@H](n2cnc(-c3c(-n4cnnn4)ccc(Cl)c3F)cc2=O)c2cc(ccn2)-c2cc(F)ccc2NC1=O [Example 35, (10R,14S)-14-{4-[3-chloro-2-fluoro-6-(1H-1,2,3,4-tetrazol-1-yl)phenyl]-6-oxo-1,6-dihydropyrimidin-1-yl}-4-fluoro-10-methyl-8,16-diazatricyclo[13.3.1.0^2,7]nonadeca-1(19),2(7),3,5,15,17-hexaen-9-one trifluoroacetate] |
| 3 | C[C@@H]1CCC[C@H](n2cnc(-c3cc(Cl)ccc3-n3cc(C(F)(F)F)nn3)cc2=O)c2cc(ccn2)-c2ccc(C#N)cc2NC1=O [Example 43, (10R,14S)-14-(4-{5-chloro-2-[4-(trifluoromethyl)-1H-1,2,3-triazol-1-yl]phenyl}-6-oxo-1,6-dihydropyrimidin-1-yl)-10-methyl-9-oxo-8,16-diazatricyclo [13.3.1.0^2,7]nonadeca-1(19),2(7),3,5,15,17-hexaene-5-carbonitrile trifluoroacetate] |
| 290 | C[C@@H]1CCC[C@H](n2cnc(-c3cc(Cl)ccc3F)cc2=O)c2cc(ccn2)-c2cc(F)ccc2NC1=O [Example 50, (10R,14S)-14-[4-(5-chloro-2-fluorophenyl)-6-oxo-1,6-dihydropyrimidin-1-yl]-4-fluoro-10-methyl-8,16-diazatricyclo[13.3.1.0^2,7]nonadeca-1(19),2(7),3,5,15,17-hexaen-9-one trifluoroacetate] |
| 0.28 | C[C@@H]1CCC[C@H](n2cnc(-c3cc(Cl)ccc3-n3cc(Cl)nn3)cc2=O)c2cc(ccn2)-c2ccccc2NC1=O [Example 57, (10R,14S)-14-{4-[5-chloro-2-(4-chloro-1H-1,2,3-triazol-1-yl)phenyl]-6-oxo-1,6-dihydropyrimidin-1-yl}-10-methyl-8,16-diazatricyclo[13.3.1.0^2,7]nonadeca-1(19),2,4,6,15,17-hexaen-9-one] |
| 11 | C[C@@H]1CCC[C@H](n2cnc(-c3cc(Cl)ccc3-n3cc(Cl)nn3)cc2=O)c2cc(ccn2)-c2cc(S(C)(=O)=O)ccc2NC1=O [Example 67, (10R,14S)-14-{4-[5-chloro-2-(4-chloro-1H-1,2,3-triazol-1-yl)phenyl]-6-oxo-1,6-dihydropyrimidin-1-yl}-4-methanesulfonyl-10-methyl-8,16-diazatricyclo [13.3.1.0^2,7]nonadeca-1(19),2(7),3,5,15,17-hexaen-9-one] |
| 39 | COC(=O)c1ccc(Cl)cc1-c1cc(=O)n([C@H]2CCC[C@@H](C)C(=O)Nc3ccc(F)cc3-c3ccnc2c3)cn1 [Example 68, methyl 4-chloro-2-{1-[(10R,14S)-4-fluoro-10-methyl-9-oxo-8,16-diazatricyclo[13.3.1.0^2,7]nonadeca-1(19),2(7),3,5,15,17-hexaen-14-yl]-6-oxo-1,6-dihydropyrimidin-4-yl}benzoate] |
| 0.26 | C[C@@H]1CCC[C@H](n2cnc(-c3cc(Cl)ccc3-n3cc(C#N)nn3)cc2=O)c2cc(ccn2)-c2ccc(C(F)F)cc2NC1=O [Example 70, 1-(4-chloro-2-{1-[(10R,14S)-5-(difluoromethyl)-10-methyl-9-oxo-8,16-diazatricyclo[13.3.1.0^2,7]nonadeca-1(19),2(7),3,5,15,17-hexaen-14-yl]-6-oxo-1,6-dihydropyrimidin-4-yl}phenyl)-1H-1,2,3-triazole-4-carbonitrile] |
| 0.42 | Cc1ccc2c(c1)NC(=O)[C@H](C)CCC[C@H](n1cnc(-c3cc(Cl)ccc3-n3cc(C(F)(F)F)nn3)cc1=O)c1cc-2ccn1 [Example 78, (10R,14S)-14-(4-{5-chloro-2-[4-(trifluoromethyl)-1H-1,2,3-triazol-1-yl]phenyl}-6-oxo-1,6-dihydropyrimidin-1-yl)-5,10-dimethyl-8,16-diazatricyclo [13.3.1.0^2,7]nonadeca-1(19),2(7),3,5,15,17-hexaen-9-one] |
| 0.1 | C[C@@H]1CCC[C@H](n2cnc(-c3cc(Cl)ccc3-n3cc(Cl)nn3)cc2=O)c2cc(ccn2)-c2ccc(O)cc2NC1=O [Example 85, (10R,14S)-14-{4-[5-chloro-2-(4-chloro-1H-1,2,3-triazol-1-yl)phenyl]-6-oxo-1,6-dihydropyrimidin-1-yl}-5-hydroxy-10-methyl-8,16-diazatricyclo[13.3.1.0^2,7]nonadeca-1(19),2(7),3,5,15,17-hexaen-9-one trifluoroacetate] |
| 7.1 | C[C@@H]1CCC[C@H](n2cnc(-c3cc(Cl)ccc3-n3cc(Cl)nn3)cc2=O)c2cc(ccn2)-c2ccc(C(F)(F)C(N)=O)cc2NC1=O [Example 90, 2-[(10R,14S)-14-{4-[5-chloro-2-(4-chloro-1H-1,2,3-triazol-1-yl)phenyl]-6-oxo-1,6-dihydropyrimidin-1-yl}-10-methyl-9-oxo-8,16-diazatricyclo[13.3.1.0^2,7]nonadeca-1(19),2(7),3,5,15,17-hexaen-5-yl]-2,2-difluoroacetamide trifluoroacetate] |

What follows are compounds tested against human plasma kallikrein (Homo sapiens, UniProt P03952) (assay: biochemical). Conditions: purified human plasma kallikrein, substrate S-2302, sodium phosphate buffer pH 7.5.
human plasma kallikrein, sequence (P03952 391-638 limits assumed): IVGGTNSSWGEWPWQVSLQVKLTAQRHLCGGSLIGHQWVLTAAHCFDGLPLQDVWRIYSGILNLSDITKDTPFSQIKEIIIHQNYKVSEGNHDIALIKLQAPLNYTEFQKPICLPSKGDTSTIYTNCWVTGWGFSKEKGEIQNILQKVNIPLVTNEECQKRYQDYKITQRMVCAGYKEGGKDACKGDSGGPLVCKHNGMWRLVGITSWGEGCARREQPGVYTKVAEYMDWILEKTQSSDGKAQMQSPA
human plasma kallikrein, sequence (P03952 20-390 partner limits assumed): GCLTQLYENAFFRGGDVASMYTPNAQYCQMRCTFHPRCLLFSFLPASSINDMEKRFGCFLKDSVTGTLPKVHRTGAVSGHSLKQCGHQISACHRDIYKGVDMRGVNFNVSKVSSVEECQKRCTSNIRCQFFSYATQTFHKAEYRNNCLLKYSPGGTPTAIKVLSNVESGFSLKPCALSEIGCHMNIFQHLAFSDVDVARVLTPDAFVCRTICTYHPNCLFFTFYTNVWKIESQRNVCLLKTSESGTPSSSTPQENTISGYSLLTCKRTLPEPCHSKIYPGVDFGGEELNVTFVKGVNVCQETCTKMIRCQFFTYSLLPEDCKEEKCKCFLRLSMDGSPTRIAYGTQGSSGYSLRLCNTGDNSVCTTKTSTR

| Ki [nM] | SMILES |
| --- | --- |
| 340 | COC(=O)Nc1ccc2c(c1)CCCCCC[C@H](n1cnc(-c3cc(Cl)ccc3-n3cnnn3)cc1=O)c1nc-2c[nH]1 [Example 132, methyl N-[(14S)-14-{4-[5-chloro-2-(1H-1,2,3,4-tetrazol-1-yl)phenyl]-6-oxo-1,6-dihydropyrimidin-1-yl}-16,18-diazatricyclo[13.2.1.0^2,7]octadeca-1(17),2,4,6,15(18)-pentaen-5-yl]carbamate trifluoroacetate] |
| 29 | C[C@@H]1CCC[C@H](n2cnc(-c3cc(Cl)ccc3-n3cc(C(F)(F)F)nn3)cc2=O)c2cc(ccn2)-c2cc(F)ccc2NC1=O [Example 135, (10R,14S)-14-(4-{5-chloro-2-[4-(trifluoromethyl)-1H-1,2,3-triazol-1-yl]phenyl}-6-oxo-1,6-dihydropyrimidin-1-yl)-4-fluoro-10-methyl-8,16-diazatricyclo [13.3.1.0^2,7]nonadeca-1(19),2(7),3,5,15,17-hexaen-9-one trifluoroacetate] |
| 76 | CCOc1cn(-c2ccc(Cl)c(F)c2-c2cc(=O)n([C@H]3CCC[C@@H](C)C(=O)Nc4ccc(F)cc4-c4ccnc3c4)cn2)nn1 [Example 136, (10R,14S)-14-{4-[3-chloro-6-(4-ethoxy-1H-1,2,3-triazol-1-yl)-2-fluorophenyl]-6-oxo-1,6-dihydropyrimidin-1-yl}-4-fluoro-10-methyl-8,16-diazatricyclo [13.3.1.0^2,7]nonadeca-1(19),2(7),3,5,15,17-hexaen-9-one trifluoroacetate] |
| 12 | Cc1cn(-c2ccc(Cl)c(F)c2-c2cc(=O)n([C@H]3CCC[C@@H](C)C(=O)Nc4ccc(F)cc4-c4ccnc3c4)cn2)nn1 [Example 137, (10R,14S)-14-{4-[3-chloro-2-fluoro-6-(4-methyl-1H-1,2,3-triazol-1-yl)phenyl]-6-oxo-1,6-dihydropyrimidin-1-yl}-4-fluoro-10-methyl-8,16-diazatricyclo[13.3.1.0^2,7]nonadeca-1(19),2(7),3,5,15,17-hexaen-9-one] |
| 510 | C[C@@H]1CCC[C@H](n2cnc(-c3cc(Cl)ccc3-n3cc(O)nn3)cc2=O)c2cc(ccn2)-c2cc(F)ccc2NC1=O [Example 139, (10R,14S)-14-{4-[5-chloro-2-(4-hydroxy-1H-1,2,3-triazol-1-yl)phenyl]-6-oxo-1,6-dihydropyrimidin-1-yl}-4-fluoro-10-methyl-8,16-diazatricyclo[13.3.1.0^2,7]nonadeca-1(19),2(7),3,5,15,17-hexaen-9-one trifluoroacetate] |
| 580 | C[C@@H]1CCC[C@H](n2cnc(-c3cc(Cl)ccc3C(F)(F)F)cc2=O)c2cc(ccn2)-c2cc(F)ccc2NC1=O [Example 141, (10R,14S)-14-{4-[5-chloro-2-(trifluoromethyl)phenyl]-6-oxo-1,6dihydropyrimidin-1-yl}-4-fluoro-10-methyl-8,16-diazatricyclo[13.3.1.0^2,7]nonadeca-1(19),2(7),3,5,15,17-hexaen-9-one trifluoroacetate] |
| 210 | CCOc1cn(-c2ccc(Cl)cc2-c2cc(=O)n([C@H]3CCC[C@@H](C)C(=O)Nc4ccc(F)cc4-c4ccnc3c4)cn2)nn1 [Example 144, (10R,14S)-14-{4-[5-chloro-2-(4-ethoxy-1H-1,2,3-triazol-1-yl)phenyl]-6-oxo-1,6-dihydropyrimidin-1-yl}-4-fluoro-10-methyl-8,16-diazatricyclo[13.3.1.0^2,7]nonadeca-1(19),2(7),3,5,15,17-hexaen-9-one trifluoroacetate] |
| 3800 | C[C@@H]1CCC[C@H](n2cnc(-c3cc(Cl)ccc3OC(F)(F)F)cc2=O)c2cc(ccn2)-c2cc(F)ccc2NC1=O [Example 146, (10R,14S)-14-{4-[5-chloro-2-(trifluoromethoxy)phenyl]-6-oxo-1,6-dihydropyrimidin-1-yl}-4-fluoro-10-methyl-8,16-diazatricyclo[13.3.1.0^2,7]nonadeca-1(19),2(7),3,5,15,17-hexaen-9-one trifluoroacetate] |
| 210 | C[C@@H]1CCC[C@H](n2cnc(-c3c(Cl)ccc(Cl)c3F)cc2=O)c2cc(ccn2)-c2cc(F)ccc2NC1=O [Example 147, (10R,14S)-14-[4-(3,6-dichloro-2-fluorophenyl)-6-oxo-1,6-dihydropyrimidin-1-yl]-4-fluoro-10-methyl-8,16-diazatricyclo[13.3.1.0^2,7]nonadeca-1(19),2(7),3,5,15,17-hexaen-9-one trifluoroacetate] |
| 38 | C[C@@H]1CCC[C@H](n2cnc(-c3cc(Cl)ccc3-n3cc(C(N)=NO)nn3)cc2=O)c2cc(ccn2)-c2cc(F)ccc2NC1=O [Example 149, 1-(4-chloro-2-{1-[(10R,14S)-4-fluoro-10-methyl-9-oxo-8,16-diazatricyclo [13.3.1.0^2,7]nonadeca-1(19),2(7),3,5,15,17-hexaen-14-yl]-6-oxo-1,6-dihydropyrimidin-4-yl}phenyl)-N-hydroxy-1H-1,2,3-triazole-4-carboximidamide bis-trifluoroacetate] |
